In patent US8168638B2, “Pyrazinecarboxamide derivatives and plant disease controlling agents containing the same” (Nihon Nohyaku Co., Ltd., priority 2005, dated 2012):

Test system: Blumeria graminis f. sp. hordei
Test: Test on the controlling effect against powdery mildew of barley plant
Type: in vivo
Conditions: barley plant (Kantoh No. 6), foliar application, active-ingredient concentration 200 ppm, application rate 50 mL, 7 days after inoculation
Description: Equation (1): Protective value (%)=A/B×100 (1) where: • A; [(Ratio of the afflicted spotted leaf surface area in non-treated section to the total leaf surface area)−(Ratio of the afflicted spotted leaf surface area in treated section to the total leaf surface area)] • B; (Ratio of the afflicted spotted leaf surface area in non-treated section to the total leaf surface area) Criteria of Judgment: 0: Less than […] in protective value 1: 10 to 19% in protective value 2: 20 to 29% in protective value 3: 30 to 39% in protective value 4: 40 to 49% in protective value 5: 50 to 59% in protective value 6: 60 to 69% in protective value 7: 70 to 79% in protective value 8: 80 to 89% in protective value 9: 90 to 99% in protective value 10: 100% in protective value A one-leaf aged barley plant (the cultivar: Kantoh No. 6) raised as a seedling in a pot of 6 cm in diameter was subjected to foliar application with a diluted emulsion of the emulsifiable concentrate of the compound of the present invention prepared in accordance with Agrochemical Formulation Example 1, which diluted emulsion was produced by diluting the concentrate with water to the specifically determined volume. […] Seven days after the inoculation, the controlling effect was assessed according the criteria of judgment as set forth in Test Example 1.

## O=C(Nc1ccccc1-c1ccc(Cl)cc1)c1cccnc1Cl [Control Compound C, 2-Chloro-N-(4′-chlorobiphenyl-2-yl)-nicotinamide]
  controlling effect assessed according to the criteria of judgment: 4 (40 to 49% in protective value)
